From PubChem BioAssay (NCI)
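Exposure lasted 48 hours, with cells grown in 96-well plates and compounds tested at five concentrations. Abbreviation: GI50, concentration required for 50% inhibition of growth. Definition used: TGI = concentration required for complete inhibition of growth.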

Assays:
Experiment in all cases: DTP human tumour cell line panel, 48 h
[1] = tested on: MDA-MB-468 breast
[2] = tested on: SR leukemia
[3] = tested on: HCT-15 colon
[4] = tested on: MALME-3M melanoma
[5] = tested on: RPMI-8226 leukemia
[6] = tested on: IGROV1 ovarian
[7] = tested on: HT29 colon
[8] = tested on: SK-OV-3 ovarian
[9] = tested on: TK-10 renal
[10] = tested on: UACC-257 melanoma
[11] = tested on: OVCAR-5 ovarian
[12] = tested on: 786-0 renal
[13] = tested on: A498 renal
[14] = tested on: SK-MEL-5 melanoma
[15] = tested on: CAKI-1 renal
[16] = tested on: SK-MEL-28 melanoma
[17] = tested on: T-47D breast
[18] = tested on: UO-31 renal
[19] = tested on: SF-539 CNS
[20] = tested on: RXF 393 renal
[21] = tested on: HCC-2998 colon
[22] = tested on: MOLT-4 leukemia
[23] = tested on: U251 CNS
[24] = tested on: KM12 colon
[25] = tested on: COLO 205 colon
[26] = tested on: DU-145 prostate
[27] = tested on: HOP-92 NSCLC
[28] = tested on: ACHN renal
[29] = tested on: UACC-62 melanoma
[30] = tested on: SF-295 CNS
[31] = tested on: M14 melanoma
[32] = tested on: MCF7 breast
[33] = tested on: MDA-MB-435
[34] = tested on: CCRF-CEM leukemia
[35] = tested on: SNB-75 CNS
[36] = tested on: OVCAR-3 ovarian
[37] = tested on: SNB-19 CNS
[38] = tested on: NCI/ADR-RES ovarian
[39] = tested on: SK-MEL-2 melanoma
[40] = tested on: SN12C renal
[41] = tested on: NCI-H522 lung
[42] = tested on: A549 NSCLC
[43] = tested on: EKVX NSCLC
[44] = tested on: BT-549 breast
[45] = tested on: NCI-H226 lung
[46] = tested on: OVCAR-8 ovarian
[47] = tested on: HL-60(TB) leukemia
[48] = tested on: HCT-116 colon
[49] = tested on: HOP-62 NSCLC
[50] = tested on: OVCAR-4 ovarian
[51] = tested on: NCI-H460 lung
[52] = tested on: K-562 leukemia
[53] = tested on: PC-3 prostate
[54] = tested on: NCI-H23 lung
[55] = tested on: SF-268 CNS

COc1ccc2sc(NC(=O)CCCCCCNC(=O)C(O)(O)C(F)(F)F)nc2c1
GI50 [1]: 0.665 µM | TGI [1]: 1.81 µM

O=C(Nc1cccc(-c2nc(-c3ccc(NC(=O)c4cccnc4)cc3Cl)no2)c1)Nc1ccc(NC(=O)C2CC2)c(C(F)(F)F)c1
GI50 [1]: 0.193 µM | TGI [1]: 0.691 µM

C/C=C(\C)C(=O)NC1=CC[C@@]2(C)C(=CCC3C2CC[C@@]2(C)C3CC[C@@H]2C(C)N(C)C)C1=O (stereo not given in full)
GI50 [1]: 2 µM | TGI [1]: 9.56 µM

COc1ccc(-c2nn(-c3cccc(Cl)c3)cc2-c2cc(-c3cccs3)[nH]c(=S)n2)cc1
GI50 [1]: 2.57 µM | TGI [1]: 9.91 µM

COc1cc(/C=C\c2cc(OC)c(OC)c(OC)c2)cc(NC(=O)/C=C/c2cc(OC)c(OC)c(OC)c2)c1OC
GI50 [1]: 1.99 µM | TGI [1]: > 100 µM

COc1ncnc2c(-c3ccccc3)cn(COCc3ccccc3)c12
GI50 [1]: 1.74 µM | TGI [1]: 6.82 µM

C=C1C(=O)O[C@H]2[C@H]1CC/C(CNC(=O)/C=C/c1cc(OC)c(OC)c(OC)c1)=C\CC[C@@]1(C)O[C@@H]21
GI50 [1]: 0.22 µM | TGI [1]: 1.06 µM

CCCCCCCCNc1cc2c3c(c1)CCCN3CCC2
GI50 [1]: 1.54 µM | TGI [1]: 5.31 µM

Oc1c(-c2nnc(-c3ccccc3Cl)o2)sc2nnc(-c3ccccc3)c(-c3ccccc3)c12
GI50 [1]: 5.11 µM | TGI [1]: 27.8 µM

O=C(CCCCCCNC(=O)c1cnc(N(c2ccccc2)c2ccccc2)nc1)NO
GI50 [1]: 1.22 µM | TGI [1]: 10.2 µM

O=C(Cn1c(/C=C/c2ccccc2)nc2ccccc2c1=O)Nc1ccc(Cl)cc1
GI50 [2]: > 100 µM | TGI [2]: > 100 µM | GI50 [3]: > 100 µM | TGI [3]: > 100 µM | GI50 [4]: 71.3 µM | TGI [4]: > 100 µM | GI50 [5]: > 100 µM | TGI [5]: > 100 µM | GI50 [6]: 70.1 µM | TGI [6]: > 100 µM | GI50 [7]: > 100 µM | TGI [7]: > 100 µM | GI50 [8]: 24.8 µM | TGI [8]: 57.4 µM | GI50 [9]: 21.4 µM | TGI [9]: 46 µM | GI50 [10]: > 100 µM | TGI [10]: > 100 µM | GI50 [11]: > 100 µM | TGI [11]: > 100 µM | GI50 [12]: 18.4 µM | TGI [12]: 64.8 µM | GI50 [13]: 22.2 µM | TGI [13]: 40.9 µM | GI50 [14]: > 100 µM | TGI [14]: > 100 µM | GI50 [15]: 69 µM | TGI [15]: > 100 µM | GI50 [16]: > 100 µM | TGI [16]: > 100 µM | GI50 [17]: 15.8 µM | TGI [17]: 47.5 µM | GI50 [18]: 21.3 µM | TGI [18]: 64.8 µM | GI50 [19]: 30.9 µM | TGI [19]: > 100 µM | GI50 [20]: 14.4 µM | TGI [20]: 35.3 µM | GI50 [21]: > 100 µM | TGI [21]: > 100 µM | GI50 [22]: > 100 µM | TGI [22]: > 100 µM | GI50 [23]: 13.9 µM | TGI [23]: > 100 µM | GI50 [24]: > 100 µM | TGI [24]: > 100 µM | GI50 [25]: > 100 µM | TGI [25]: > 100 µM | GI50 [26]: > 100 µM | TGI [26]: > 100 µM | GI50 [27]: 11.2 µM | TGI [27]: 32.2 µM | GI50 [28]: 16 µM | TGI [28]: 49.6 µM | GI50 [29]: > 100 µM | TGI [29]: > 100 µM | GI50 [30]: 26.8 µM | TGI [30]: > 100 µM | GI50 [31]: > 100 µM | TGI [31]: > 100 µM | GI50 [32]: > 100 µM | TGI [32]: > 100 µM | GI50 [33]: > 100 µM | TGI [33]: > 100 µM | GI50 [34]: > 100 µM | TGI [34]: > 100 µM | GI50 [35]: 19.4 µM | TGI [35]: 53.8 µM | GI50 [36]: 60.6 µM | TGI [36]: > 100 µM | GI50 [37]: 32.7 µM | TGI [37]: > 100 µM | GI50 [38]: 71.4 µM | TGI [38]: > 100 µM | GI50 [39]: > 100 µM | TGI [39]: > 100 µM | GI50 [40]: 16.7 µM | TGI [40]: > 100 µM | GI50 [41]: 83.4 µM | TGI [41]: > 100 µM | GI50 [42]: 87.2 µM | TGI [42]: > 100 µM | GI50 [43]: > 100 µM | TGI [43]: > 100 µM | GI50 [44]: > 100 µM | TGI [44]: > 100 µM | GI50 [45]: 23.9 µM | TGI [45]: > 100 µM | GI50 [46]: > 100 µM | TGI [46]: > 100 µM | GI50 [47]: > 100 µM | TGI [47]: > 100 µM | GI50 [48]: 46 µM | TGI [48]: > 100 µM | GI50 [49]: 24.7 µM | TGI [49]: 80.1 µM | GI50 [50]: 9.54 µM | TGI [50]: > 100 µM | GI50 [51]: 39.6 µM | TGI [51]: > 100 µM | GI50 [52]: > 100 µM | TGI [52]: > 100 µM | GI50 [53]: > 100 µM | TGI [53]: > 100 µM | GI50 [54]: 34.4 µM | TGI [54]: > 100 µM | GI50 [1]: 29.2 µM | TGI [1]: > 100 µM | GI50 [55]: > 100 µM | TGI [55]: > 100 µM
